Data from patent publication US8124637B2, “Anthra [1, 2-d]imidazole-6,11-dione derivatives, preparation method and application thereof” (National Defense Medical Center, priority 2010, dated 2012).

Columns and labels:
Assay type in all cases: cell-based, human
IGROV1 = assay: NCI 60-cell drug screen, one dose; conditions: Ovarian Cancer IGROV1, 1.00E−5 Molar
Experimental: (§1) In brief, cellular protein levels were determined after 48 hours of drug exposure by sulforhodamine B colorimetry.
(§2) The screening system in United State National Cancer Institute (NCI) consists of 60 kinds of different human cancer cells, which can be used to assay the growth-inhibiting ability or cell toxicity of a compound against various cancer and tumor at a certain concentration. The NCI had selected 6 compounds synthesized above, and performed cell toxicity assay against 60 kinds of cancer cell strains (Table 2) (DTP Human Tumor Cell Line Screen), in which each compound was assayed at a certain concentration to observe its inhibition ability or cell toxicity against various kinds of cancer and tumor.

EKVX = assay: NCI 60-cell drug screen, one dose; conditions: Non-Small Cell Lung Cancer EKVX, 1.00E−5 Molar
Experimental: as §1, §2

SN12C = assay: NCI 60-cell drug screen, one dose; conditions: Renal Cancer SN12C, 1.00E−5 Molar
Experimental: as §1, §2

SK-OV-3 = assay: NCI 60-cell drug screen, one dose; conditions: Ovarian Cancer SK-OV-3, 1.00E−5 Molar
Experimental: as §1, §2

HS 578-T = assay: NCI 60-cell drug screen, one dose; conditions: Breast Cancer HS 578-T, 1.00E−5 Molar
Experimental: as §1, §2

SNB-75 = assay: NCI 60-cell drug screen, one dose; conditions: CNS Cancer SNB-75, 1.00E−5 Molar
Experimental: as §1, §2

TK-10 = assay: NCI 60-cell drug screen, one dose; conditions: Renal Cancer TK-10, 1.00E−5 Molar
Experimental: as §1, §2

NCI-H522 = assay: NCI 60-cell drug screen, one dose; conditions: Non-Small Cell Lung Cancer NCI-H522, 1.00E−5 Molar
Experimental: as §1, §2

MDA-MB-231/ATCC = assay: NCI 60-cell drug screen, one dose; conditions: Breast Cancer MDA-MB-231/ATCC, 1.00E−5 Molar
Experimental: as §1, §2

MCF7 = assay: NCI 60-cell drug screen, one dose; conditions: Breast Cancer MCF7, 1.00E−5 Molar
Experimental: as §1, §2

SK-MEL-5 = assay: NCI 60-cell drug screen, one dose; conditions: Melanoma SK-MEL-5, 1.00E−5 Molar
Experimental: as §1, §2

NCI-H460 = assay: NCI 60-cell drug screen, one dose; conditions: Non-Small Cell Lung Cancer NCI-H460, 1.00E−5 Molar
Experimental: as §1, §2

786-0 = assay: NCI 60-cell drug screen, one dose; conditions: Renal Cancer 786-0, 1.00E−5 Molar
Experimental: as §1, §2

OVCAR-5 = assay: NCI 60-cell drug screen, one dose; conditions: Ovarian Cancer OVCAR-5, 1.00E−5 Molar
Experimental: as §1, §2

MDA-MB-435 = assay: NCI 60-cell drug screen, one dose; conditions: Melanoma MDA-MB-435, 1.00E−5 Molar
Experimental: as §1, §2

HOP-92 = assay: NCI 60-cell drug screen, one dose; conditions: Non-Small Cell Lung Cancer HOP-92, 1.00E−5 Molar
Experimental: as §1, §2

SF-268 = assay: NCI 60-cell drug screen, one dose; conditions: CNS Cancer SF-268, 1.00E−5 Molar
Experimental: as §1, §2

T-47D = assay: NCI 60-cell drug screen, one dose; conditions: Breast Cancer T-47D, 1.00E−5 Molar
Experimental: as §1, §2

UACC-62 = assay: NCI 60-cell drug screen, one dose; conditions: Melanoma UACC-62, 1.00E−5 Molar
Experimental: as §1, §2

NCI-H322M = assay: NCI 60-cell drug screen, one dose; conditions: Non-Small Cell Lung Cancer NCI-H322M, 1.00E−5 Molar
Experimental: as §1, §2

NCI-H23 = assay: NCI 60-cell drug screen, one dose; conditions: Non-Small Cell Lung Cancer NCI-H23, 1.00E−5 Molar
Experimental: as §1, §2

HOP-62 = assay: NCI 60-cell drug screen, one dose; conditions: Non-Small Cell Lung Cancer HOP-62, 1.00E−5 Molar
Experimental: as §1, §2

OVCAR-4 = assay: NCI 60-cell drug screen, one dose; conditions: Ovarian Cancer OVCAR-4, 1.00E−5 Molar
Experimental: as §1, §2

SF-539 = assay: NCI 60-cell drug screen, one dose; conditions: CNS Cancer SF-539, 1.00E−5 Molar
Experimental: as §1, §2

MDA-MB-468 = assay: NCI 60-cell drug screen, one dose; conditions: Breast Cancer MDA-MB-468, 1.00E−5 Molar
Experimental: as §1, §2

[1] = NCI 60-cell drug screen, one dose; conditions: Renal Cancer A489, 1.00E−5 Molar
Experimental: as §1, §2

DU145 = assay: NCI 60-cell drug screen, one dose; conditions: Prostate Cancer DU145, 1.00E−5 Molar
Experimental: as §1, §2

M14 = assay: NCI 60-cell drug screen, one dose; conditions: Melanoma M14, 1.00E−5 Molar
Experimental: as §1, §2

UO-31 = assay: NCI 60-cell drug screen, one dose; conditions: Renal Cancer UO-31, 1.00E−5 Molar
Experimental: as §1, §2

SNB-19 = assay: NCI 60-cell drug screen, one dose; conditions: CNS Cancer SNB-19, 1.00E−5 Molar
Experimental: as §1, §2

SW-620 = assay: NCI 60-cell drug screen, one dose; conditions: Colon Cancer SW-620, 1.00E−5 Molar
Experimental: as §1, §2

SK-MEL-28 = assay: NCI 60-cell drug screen, one dose; conditions: Melanoma SK-MEL-28, 1.00E−5 Molar
Experimental: as §1, §2

HT29 = assay: NCI 60-cell drug screen, one dose; conditions: Colon Cancer HT29, 1.00E−5 Molar
Experimental: as §1, §2

ACHN = assay: NCI 60-cell drug screen, one dose; conditions: Renal Cancer ACHN, 1.00E−5 Molar
Experimental: as §1, §2

BT-549 = assay: NCI 60-cell drug screen, one dose; conditions: Breast Cancer BT-549, 1.00E−5 Molar
Experimental: as §1, §2

KM12 = assay: NCI 60-cell drug screen, one dose; conditions: Colon Cancer KM12, 1.00E−5 Molar
Experimental: as §1, §2

SMILES | Growth Percent (IGROV1) | Growth Percent (EKVX) | Growth Percent (SN12C) | Growth Percent (SK-OV-3) | Growth Percent (HS 578-T) | Growth Percent (SNB-75) | Growth Percent (TK-10) | Growth Percent (NCI-H522) | Growth Percent (MDA-MB-231/ATCC) | Growth Percent (MCF7) | Growth Percent (SK-MEL-5) | Growth Percent (NCI-H460) | Growth Percent (786-0) | Growth Percent (OVCAR-5) | Growth Percent (MDA-MB-435) | Growth Percent (HOP-92) | Growth Percent (SF-268) | Growth Percent (T-47D) | Growth Percent (UACC-62) | Growth Percent (NCI-H322M) | other results
CN1CCN(Cc2nc3ccc4c(c3[nH]2)C(=O)c2ccccc2C4=O)CC1 [CL24, 2-((4-methylpiperazin-1-yl)methyl)-1H-anthra[1,2-d]imidazole-6,11-dione] | 12.05% | 65.93% | 48.50% | 74.33% | 51.48% | 69.87% | 73.05% | 64.61% | 61.66% | 36.71% | 77.46% | 57.35% | 59.13% | 97.72% | 86.53% | 9.17% | 51.16% | 97.08% | 81.12% | 82.41% | Growth Percent (NCI-H23): 72.97%; Growth Percent (HOP-62): 60.84%; Growth Percent (OVCAR-4): 50.98%; Growth Percent (SF-539): 63.88%; Growth Percent (MDA-MB-468): 71.59%; Growth Percent [1]: 69.36%; Growth Percent (DU145): 60.08%; Growth Percent (M14): 97.20%; Growth Percent (UO-31): 22.93%; Growth Percent (SNB-19): 65.60%; Growth Percent (SW-620): 44.22%; Growth Percent (SK-MEL-28): 96.38%; Growth Percent (HT29): 22.64%; Growth Percent (ACHN): 33.08%; Growth Percent (BT-549): 100.53%; Growth Percent (KM12): 55.51%
O=C1c2ccccc2C(=O)c2c1ccc1nc(CN3CCN(c4ccccc4)CC3)[nH]c21 [CL27, 2-((4-phenylpiperazin-1-yl)methyl)-1H-anthra[1,2-d]imidazole-6,11-dione] | 69.25% | 88.70% | 89.91% | 98.95% | 80.56% | 70.93% | 118.37% | 73.61% | 90.47% | 66.08% | 74.84% | 94.45% | 88.48% | 107.63% | 101.37% | 178.61% | 80.44% | 66.35% | 93.36% | 91.96% | Growth Percent (NCI-H23): 92.11%; Growth Percent (HOP-62): 98.40%; Growth Percent (OVCAR-4): 67.72%; Growth Percent (SF-539): 112.36%; Growth Percent (MDA-MB-468): 72.75%; Growth Percent [1]: 75.09%; Growth Percent (DU145): 90.69%; Growth Percent (M14): 106.33%; Growth Percent (UO-31): 58.33%; Growth Percent (SNB-19): 103.62%; Growth Percent (SW-620): 90.92%; Growth Percent (SK-MEL-28): 127.46%; Growth Percent (HT29): 87.57%; Growth Percent (ACHN): 86.32%; Growth Percent (BT-549): 110.22%; Growth Percent (KM12): 85.80%
O=C1c2ccccc2C(=O)c2c1ccc1nc(CN3CCN(c4ccccn4)CC3)[nH]c21 [CL28, 2-((4-(pyridin-2-yl)piperazin-1-yl)methyl)-1H-anthra[1,2-d]imidazole-6,11-dione] | 91.25% | 63.00% | 79.85% | 93.16% | 111.04% | 82.14% | 120.65% | 94.06% | 72.65% | 81.99% | 83.56% | 79.98% | 91.03% | 110.77% | 94.85% | 93.87% | 79.15% | 56.78% | 85.13% | 93.77% | Growth Percent (NCI-H23): 81.65%; Growth Percent (HOP-62): 103.18%; Growth Percent (OVCAR-4): 64.57%; Growth Percent (SF-539): 104.29%; Growth Percent (MDA-MB-468): 53.92%; Growth Percent [1]: 68.23%; Growth Percent (DU145): 81.46%; Growth Percent (M14): 103.99%; Growth Percent (UO-31): 60.42%; Growth Percent (SNB-19): 81.00%; Growth Percent (SW-620): 85.97%; Growth Percent (SK-MEL-28): 114.23%; Growth Percent (HT29): 75.79%; Growth Percent (ACHN): 80.61%; Growth Percent (BT-549): 102.42%; Growth Percent (KM12): 95.03%
